Results published in ChEMBL document CHEMBL4373715, “Discovery and Biological Evaluations of Halogenated 2,4-Diphenyl Indeno[1,2-b]pyridinol Derivatives as Potent Topoisomerase IIα-Targeted Chemotherapeutic Agents for Breast Cancer” (J Med Chem, 2019).
The source made the active and inactive calls. The rule behind the calls is not given here.

Key:
HeLa = assay: Antiproliferative activity against human HeLa cells measured after 72 hrs by EZ-Cytox assay; format: functional, cell-based
[1] = Half life in Sprague-Dawley rat liver microsomes at 1 mM in presence of NADPH by LC-MS/MS analysis; format: ADME, Microsome
[2] = Toxicity in female ICR mouse assessed as mortality at 50 mg/kg, iv administered as single dose measured daily for 7 days (reference value: 0%); format: organism-based; conditions: in vivo
MDA-MB-436 = assay: Antiproliferative activity against human MDA-MB-436 cells measured after 72 hrs by Ez-cytox assay; format: functional, cell-based; conditions: MDA-MB-436, 72 h
T47D [3] = assay: Induction of apoptosis in human T47D cells assessed as decrease in bcl-2 expression at 10 to 30 uM measured after 24 hrs by Western blot analysis; format: functional, cell-based
[4] = target: DNA topoisomerase 2-alpha (Homo sapiens) (UniProt P11388); assay: Inhibition of recombinant human topoisomerase 2alpha-mediated relaxation of supercoiled pBR322 DNA at 20 uM measured after 30 mins by ethidium bromide staining based agarose gel electrophoresis relative to control
[5] = Stability in mouse plasma assessed as parent compound remaining at 1 mM measured after 0.25 hrs by LC-MS/MS analysis; format: ADME, cell-free; conditions: read-out: Stability
[6] = Stability in human plasma assessed as parent compound remaining at 1 mM measured after 0.25 hrs by LC-MS/MS analysis; format: ADME, cell-free; conditions: read-out: Stability
HCT-15 = assay: Antiproliferative activity against human HCT15 cells measured after 72 hrs by EZ-Cytox assay; format: functional, cell-based; conditions: HCT-15, 72 h
T47D [7] = assay: Induction of DNA damage in human T47D cells at 5 to 10 uM measured after 24 hrs by comet assay; format: functional, cell-based
MDA-MB-231 [8] = assay: Antitumor activity against human MDA-MB-231 cells expressing luciferase xenografted in mouse assessed as reduction in tumor weight at 12 mg/kg, iv administered once daily for 10 days measured 18 days post-last dose by bioluminescent imaging analysis; format: functional, organism-based
[9] = Stability in rat plasma assessed as parent compound remaining at 1 mM measured immediately by LC-MS/MS analysis; format: ADME, cell-free; conditions: read-out: Stability
[10] = Stability in human plasma assessed as parent compound remaining at 1 mM measured after 2 hrs by LC-MS/MS analysis; format: ADME, cell-free; conditions: read-out: Stability
MDA-MB-231 [11] = assay: Antiproliferative activity against human MDA-MB-231 cells measured after 72 hrs by Ez-cytox assay; format: functional, cell-based; conditions: MDA-MB-231, 72 h
[12] = Stability in rat plasma assessed as parent compound remaining at 1 mM measured after 0.5 hrs by LC-MS/MS analysis; format: ADME, cell-free; conditions: read-out: Stability
[13] = Stability in rat plasma assessed as parent compound remaining at 1 mM measured after 1 hr by LC-MS/MS analysis; format: ADME, cell-free; conditions: read-out: Stability
[14] = Protein binding in mouse plasma assessed as unbound fraction at 1 mM measured immediately by LC-MS/MS analysis; format: ADME, cell-free
[15] = Stability in human plasma assessed as parent compound remaining at 1 mM measured after 1 hr by LC-MS/MS analysis; format: ADME, cell-free; conditions: read-out: Stability
[16] = Toxicity in male ICR mouse assessed as mortality at 50 mg/kg, iv administered as single dose measured daily for 7 days (reference value: 0%); format: organism-based; conditions: in vivo
[17] = Toxicity in female ICR mouse assessed as mortality at 100 mg/kg, iv administered as single dose measured daily for 7 days (reference value: 0%); format: organism-based; conditions: in vivo
T47D [18] = assay: Induction of apoptosis in human T47D cells assessed as increase in Bax expression at 10 to 30 uM measured after 24 hrs by Western blot analysis; format: functional, cell-based
[19] = Protein binding in mouse plasma assessed as unbound fraction at 1 mM measured after 1 hr by LC-MS/MS analysis; format: ADME, cell-free
[20] = Stability in mouse plasma assessed as parent compound remaining at 1 mM measured after 0.5 hrs by LC-MS/MS analysis; format: ADME, cell-free; conditions: 1000 µM
[21] = Toxicity in female ICR mouse assessed as change in body weight at 50 to 100 mg/kg, iv administered as single dose measured daily for 7 days; format: organism-based; conditions: in vivo, 168 h
[22] = Stability in human plasma assessed as parent compound remaining at 1 mM measured immediately by LC-MS/MS analysis; format: ADME, cell-free; conditions: read-out: Stability
[23] = Toxicity in female ICR mouse assessed as physical abnormalities at 50 to 100 mg/kg, iv administered as single dose measured up to 7 days; format: organism-based; conditions: in vivo, 168 h
[24] = Stability in mouse plasma assessed as parent compound remaining at 1 mM measured after 4 hrs by LC-MS/MS analysis; format: ADME, cell-free; conditions: 1000 µM
[25] = target: DNA topoisomerase 2-alpha (Homo sapiens) (UniProt P11388); assay: Poison activity at topoisomerase-2 alpha in human T47D cells assessed as stabilization of enzyme-DNA cleavage complex by measuring reduction in topo-2alpha level at 50 uM measured after 2 hrs in presence of etoposide by Western blot analysis; format: cell-based
T47D [26] = assay: Induction of apoptosis in human T47D cells assessed as increase in cleaved PARP expression at 10 to 30 uM measured after 24 hrs by Western blot analysis; format: functional, cell-based
[27] = Stability in mouse plasma assessed as parent compound remaining at 1 mM measured after 2 hrs by LC-MS/MS analysis; format: ADME, cell-free; conditions: 1000 µM
HCC70 = assay: Antiproliferative activity against human HCC70 cells measured after 72 hrs by Ez-cytox assay; format: functional, cell-based; conditions: HCC70, 72 h, read-out: IC50
[28] = Half life in ICR mouse liver microsomes at 1 mM in presence of NADPH by LC-MS/MS analysis; format: ADME, Microsome
[29] = target: DNA topoisomerase 2-alpha (Homo sapiens) (UniProt P11388); assay: Inhibition of recombinant human topoisomerase 2alpha-mediated relaxation of supercoiled pBR322 DNA at 100 uM measured after 30 mins by ethidium bromide staining based agarose gel electrophoresis relative to control
[30] = Protein binding in human plasma assessed as unbound fraction at 1 mM measured immediately by LC-MS/MS analysis; format: ADME, cell-free
[31] = Protein binding in rat plasma assessed as unbound fraction at 1 mM measured after 1 hr by LC-MS/MS analysis; format: ADME, cell-free
[32] = target: DNA topoisomerase 2-alpha (Homo sapiens) (UniProt P11388); assay: Poison activity at topoisomerase-2 alpha in human T47D cells assessed as stabilization of enzyme-DNA cleavage complex by measuring reduction in topo-2alpha level at 50 uM measured after 2 hrs by Western blot analysis; format: cell-based
[33] = Protein binding in rat plasma assessed as unbound fraction at 1 mM measured immediately by LC-MS/MS analysis; format: ADME, cell-free
[34] = Stability in human plasma assessed as parent compound remaining at 1 mM measured after 0.5 hrs by LC-MS/MS analysis; format: ADME, cell-free; conditions: read-out: Stability
[35] = Half life in human liver microsomes at 1 mM in presence of NADPH by LC-MS/MS analysis; format: ADME, Microsome
[36] = Stability in mouse plasma assessed as parent compound remaining at 1 mM measured after 1 hr by LC-MS/MS analysis; format: ADME, cell-free; conditions: read-out: Stability
MDA-MB-231 [37] = assay: Antitumor activity against human MDA-MB-231 cells expressing luciferase xenografted in mouse assessed as tumor growth inhibition at 12 mg/kg, iv administered once daily for 10 days measured on day 4 and 11 by bioluminescent imaging analysis; format: functional, organism-based
[38] = Protein binding in human plasma assessed as unbound fraction at 1 mM measured after 1 hr by LC-MS/MS analysis; format: ADME, cell-free
[39] = Toxicity in male ICR mouse assessed as physical abnormalities at 50 to 100 mg/kg, iv administered as single dose measured up to 7 days; format: organism-based; conditions: in vivo, 168 h

Chain of DNA topoisomerase 2-alpha (Homo sapiens) (P11388 whole entry): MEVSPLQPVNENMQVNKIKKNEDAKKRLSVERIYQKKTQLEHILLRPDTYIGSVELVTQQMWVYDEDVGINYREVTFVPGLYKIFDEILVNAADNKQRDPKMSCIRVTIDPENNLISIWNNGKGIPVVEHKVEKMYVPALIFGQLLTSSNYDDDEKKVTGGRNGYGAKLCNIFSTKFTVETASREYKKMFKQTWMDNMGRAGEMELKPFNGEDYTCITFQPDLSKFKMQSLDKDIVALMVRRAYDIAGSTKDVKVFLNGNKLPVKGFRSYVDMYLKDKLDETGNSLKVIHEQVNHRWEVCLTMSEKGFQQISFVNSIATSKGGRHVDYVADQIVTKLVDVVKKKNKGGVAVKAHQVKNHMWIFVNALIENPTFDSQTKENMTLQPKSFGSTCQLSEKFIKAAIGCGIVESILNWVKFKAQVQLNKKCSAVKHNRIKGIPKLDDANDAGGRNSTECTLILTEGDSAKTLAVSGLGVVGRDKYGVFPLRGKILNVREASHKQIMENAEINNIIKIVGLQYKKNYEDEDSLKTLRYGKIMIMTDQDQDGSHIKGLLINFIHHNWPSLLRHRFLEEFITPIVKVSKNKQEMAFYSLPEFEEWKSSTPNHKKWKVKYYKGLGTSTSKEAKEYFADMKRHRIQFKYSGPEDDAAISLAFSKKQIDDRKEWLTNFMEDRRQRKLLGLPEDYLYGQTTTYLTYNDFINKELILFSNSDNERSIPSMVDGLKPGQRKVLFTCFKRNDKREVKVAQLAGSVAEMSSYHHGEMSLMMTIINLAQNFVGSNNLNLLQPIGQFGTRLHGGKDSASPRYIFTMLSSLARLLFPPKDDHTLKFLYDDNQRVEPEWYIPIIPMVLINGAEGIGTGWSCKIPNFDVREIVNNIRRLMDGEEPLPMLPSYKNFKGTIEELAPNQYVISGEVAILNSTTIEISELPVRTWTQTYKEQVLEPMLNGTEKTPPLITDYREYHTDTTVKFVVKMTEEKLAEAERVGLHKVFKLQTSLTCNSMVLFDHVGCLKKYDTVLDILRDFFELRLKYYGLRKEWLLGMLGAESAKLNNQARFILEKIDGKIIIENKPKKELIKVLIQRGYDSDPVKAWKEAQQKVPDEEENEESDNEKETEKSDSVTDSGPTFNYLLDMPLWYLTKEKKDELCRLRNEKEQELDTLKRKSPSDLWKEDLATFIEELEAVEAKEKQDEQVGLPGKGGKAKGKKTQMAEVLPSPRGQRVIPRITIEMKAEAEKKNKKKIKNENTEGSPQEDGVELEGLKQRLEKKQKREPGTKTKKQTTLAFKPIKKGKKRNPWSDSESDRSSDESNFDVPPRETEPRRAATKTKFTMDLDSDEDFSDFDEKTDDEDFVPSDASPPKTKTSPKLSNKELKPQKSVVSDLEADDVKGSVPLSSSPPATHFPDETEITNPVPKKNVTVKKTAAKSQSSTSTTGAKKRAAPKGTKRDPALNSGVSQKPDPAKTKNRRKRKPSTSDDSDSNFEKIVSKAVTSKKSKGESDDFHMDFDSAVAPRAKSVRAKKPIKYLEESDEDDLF

Oc1ccc(-c2cc(-c3ccccc3Cl)nc3c2Cc2c(O)cccc2-3)cc1
IC50 (HeLa): 2460 nM | half-life [1]: 26 h | mortality at 168 h [2]: 0% | IC50 (MDA-MB-436): 2640 nM | Activity (T47D [3]): Active | inhibition [4]: 78.9% | remaining at 0.25 h [5]: 109% | remaining at 0.25 h [6]: 98.7% | IC50 (HCT-15): 14 nM | Activity (T47D [7]): Active | Activity (MDA-MB-231 [8]): Active | remaining at 0 h [9]: 100% | remaining at 2 h [10]: 100% | IC50 (MDA-MB-231 [11]): 2700 nM | remaining at 0.5 h [12]: 99.8% | remaining at 1 h [13]: 111% | fraction unbound at 0 h [14]: 1 | remaining at 1 h [15]: 104% | mortality at 168 h [16]: 0% | mortality at 168 h [17]: 0% | Activity (T47D [18]): Active | fraction unbound at 1 h [19]: 0.999 | Stability [20]: 117.1% | Activity [21]: Non-Toxic | remaining at 0 h [22]: 100% | Activity [23]: Non-Toxic | Stability [24]: 130.8% | Activity [25]: Active | Activity (T47D [26]): Active | Stability [27]: 116.3% | IC50 (HCC70): 2080 nM | half-life [28]: 2.61 h | inhibition [29]: 100% | fraction unbound at 0 h [30]: 1 | fraction unbound at 1 h [31]: 1 | Activity [32]: Active | fraction unbound at 0 h [33]: 1 | remaining at 0.5 h [34]: 99.3% | half-life [35]: 6.53 h | remaining at 1 h [36]: 110% | TGI (MDA-MB-231 [37]): Active | fraction unbound at 1 h [38]: 0.959 | Activity [39]: Non-Toxic
